Test results from patent US10757937B2, “Sulfonamides that activate ABA receptors” (The Regents of the University of California, priority 2014, dated 2020).

What was measured:
Experiment in all cases: receptor-mediated PP2C (HAB1) inhibition in vitro assay
Format in all cases: biochemical
[1] = target: T1, PYL2 (Arabidopsis thaliana, UniProt O80992); conditions: for remaining activity at 50 µM: 50 uM of the test compound; for IC50: Table XII-B, calculated from dose curves, read-out: PP2C Activity (IC50 in uM) PYL2
T1 construct: 6X-His; made in house; host or cells: E. coli BL21[DE3]pLysS
T1 sequence (O80992 1-190): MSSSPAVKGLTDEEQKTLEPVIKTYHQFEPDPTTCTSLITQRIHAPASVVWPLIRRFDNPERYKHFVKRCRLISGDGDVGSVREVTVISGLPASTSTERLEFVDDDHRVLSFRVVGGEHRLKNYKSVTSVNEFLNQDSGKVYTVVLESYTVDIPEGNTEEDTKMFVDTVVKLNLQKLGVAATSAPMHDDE
T1 sequence (Q9CAJ0 23-511 partner): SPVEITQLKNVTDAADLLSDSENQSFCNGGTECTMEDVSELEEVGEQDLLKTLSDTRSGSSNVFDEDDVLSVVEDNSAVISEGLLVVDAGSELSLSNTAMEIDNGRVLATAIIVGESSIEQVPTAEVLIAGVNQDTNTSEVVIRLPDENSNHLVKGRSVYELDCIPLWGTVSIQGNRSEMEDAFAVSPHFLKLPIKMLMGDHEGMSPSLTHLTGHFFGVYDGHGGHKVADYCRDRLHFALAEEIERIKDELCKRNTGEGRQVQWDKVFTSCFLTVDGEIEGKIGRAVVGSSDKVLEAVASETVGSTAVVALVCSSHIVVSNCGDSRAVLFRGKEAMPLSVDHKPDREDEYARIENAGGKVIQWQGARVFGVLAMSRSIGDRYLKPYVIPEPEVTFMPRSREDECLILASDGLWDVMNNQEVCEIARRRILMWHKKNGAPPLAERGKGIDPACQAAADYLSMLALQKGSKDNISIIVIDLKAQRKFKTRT
Summary of the method: (§1)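 His-tagged receptors (MBP fusion for PYL11) at 2:1 ratio to 50 nM GST-HAB1 in 100 mM Tris-OAc pH 7.9, 100 mM NaCl, 1 mM MnCl2; 4-methylumbelliferyl-phosphate fluorogenic substrate. Compounds at 50 uM (ABA 10 uM); IC50 from dose curves for selected compounds.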

[2] = target: T2, PYL1 (Arabidopsis thaliana, UniProt Q8VZS8); conditions: for remaining activity at 50 µM: 50 uM of the test compound; for IC50: Table XII-B, calculated from dose curves, read-out: PP2C Activity (IC50 in uM) PYL1
T2 construct: 6X-His; made in house; host or cells: E. coli BL21[DE3]pLysS
T2 sequence (Q8VZS8 1-221): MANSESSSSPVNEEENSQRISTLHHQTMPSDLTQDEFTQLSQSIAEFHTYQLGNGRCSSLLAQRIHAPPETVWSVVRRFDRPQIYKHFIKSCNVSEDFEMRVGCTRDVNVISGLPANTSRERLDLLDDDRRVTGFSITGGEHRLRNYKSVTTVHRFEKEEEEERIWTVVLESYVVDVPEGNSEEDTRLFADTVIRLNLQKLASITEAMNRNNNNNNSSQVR
T2 sequence (Q9CAJ0 23-511 partner): T1 sequence (Q9CAJ0 23-511 partner)
Summary of the method: as §1

[3] = target: T3, PYL5 (Arabidopsis thaliana, UniProt Q9FLB1); conditions: for remaining activity at 50 µM: 50 uM of the test compound; for IC50: Table XII-B, calculated from dose curves, read-out: PP2C Activity (IC50 in uM) PYL5
T3 construct: 6X-His; made in house; host or cells: E. coli BL21[DE3]pLysS
T3 sequence (Q9FLB1 1-203): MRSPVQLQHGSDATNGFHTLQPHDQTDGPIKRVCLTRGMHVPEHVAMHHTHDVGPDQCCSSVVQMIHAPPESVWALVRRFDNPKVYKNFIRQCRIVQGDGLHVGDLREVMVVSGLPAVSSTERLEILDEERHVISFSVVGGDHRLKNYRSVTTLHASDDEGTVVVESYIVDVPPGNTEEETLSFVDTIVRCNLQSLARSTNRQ
T3 sequence (Q9CAJ0 23-511 partner): T1 sequence (Q9CAJ0 23-511 partner)
Summary of the method: (§2)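 Compounds, tested at 25 μM or 50 uM with ABA at 10 uM, were incubated with recombinant receptor and 50 nM GST-HAB1 (2:1 ratio) in MnCl2-containing Tris-OAc buffer, pH 7.9. Phosphatase activity was followed by 4-methylumbelliferyl-phosphate fluorescence.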

[4] = target: T4, PYL6 (Arabidopsis thaliana, UniProt Q8S8E3); conditions: for remaining activity at 50 µM: 50 uM of the test compound; for IC50: Table XII-B, calculated from dose curves, read-out: PP2C Activity (IC50 in uM) PYL6
T4 construct: 6X-His; made in house; host or cells: E. coli BL21[DE3]pLysS
T4 sequence (Q8S8E3 1-215): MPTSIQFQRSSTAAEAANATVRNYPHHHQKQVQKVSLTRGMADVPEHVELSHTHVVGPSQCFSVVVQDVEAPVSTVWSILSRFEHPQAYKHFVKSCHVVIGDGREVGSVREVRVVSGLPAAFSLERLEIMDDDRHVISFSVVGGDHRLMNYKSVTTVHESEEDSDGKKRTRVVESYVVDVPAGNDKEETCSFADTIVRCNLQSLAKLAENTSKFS
T4 sequence (Q9CAJ0 23-511 partner): T1 sequence (Q9CAJ0 23-511 partner)
Summary of the method: as §1

[5] = target: T5, PYL11 (Arabidopsis thaliana, UniProt Q9FJ50); conditions: for remaining activity at 50 µM: 50 uM of the test compound; for IC50: Table XII-B, calculated from dose curves, read-out: PP2C Activity (IC50 in uM) PYL11
T5 construct: made in house; host or cells: E. coli BL21[DE3]pLysS
T5 sequence (Q9FJ50 1-161): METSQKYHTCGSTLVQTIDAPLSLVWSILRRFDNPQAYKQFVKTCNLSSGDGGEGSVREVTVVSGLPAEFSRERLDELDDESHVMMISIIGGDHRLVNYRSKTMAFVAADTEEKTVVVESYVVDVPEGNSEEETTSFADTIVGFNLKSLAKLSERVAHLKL
T5 sequence (Q9CAJ0 23-511 partner): T1 sequence (Q9CAJ0 23-511 partner)
Summary of the method: as §2

[6] = target: T6, PYL9 (Arabidopsis thaliana, UniProt Q84MC7); conditions: for remaining activity at 50 µM: 50 uM of the test compound; for IC50: Table XII-B, calculated from dose curves, read-out: PP2C Activity (IC50 in uM) PYL9
T6 construct: 6X-His; made in house; host or cells: E. coli BL21[DE3]pLysS
T6 sequence (Q84MC7 1-187): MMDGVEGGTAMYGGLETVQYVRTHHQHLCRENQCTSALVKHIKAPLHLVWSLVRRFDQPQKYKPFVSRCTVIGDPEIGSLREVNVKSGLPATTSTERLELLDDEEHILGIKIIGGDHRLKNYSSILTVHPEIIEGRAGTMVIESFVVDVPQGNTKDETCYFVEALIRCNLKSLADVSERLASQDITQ
T6 sequence (Q9CAJ0 23-511 partner): T1 sequence (Q9CAJ0 23-511 partner)
Summary of the method: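 Fluorogenic readout: 4-methylumbelliferyl-phosphate hydrolysis by 50 nM GST-HAB1 plus 2:1 His-receptor; Tris-OAc pH 7.9, NaCl, 1 mM MnCl2, β-ME. Compounds at 25 μM or 50 uM single dose; IC50 from dose curves for selected compounds.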

| Structure (SMILES) | remaining activity at 50 µM [1] [%] | IC50 [1] [µM] | remaining activity at 50 µM [2] [%] | IC50 [2] [µM] | remaining activity at 50 µM [3] [%] | IC50 [3] [µM] | remaining activity at 50 µM [4] [%] | IC50 [4] [µM] | remaining activity at 50 µM [5] [%] | IC50 [5] [µM] | remaining activity at 50 µM [6] [%] | IC50 [6] [µM] |
| --- | --- | --- | --- | --- | --- | --- | --- | --- | --- | --- | --- | --- |
| N#Cc1ccc(CS(=O)(=O)NC(=O)C2(c3ccsc3)CCCCC2)cc1 [Compound 78, N-[(4-Cyanophenyl)methanesulfonyl]-1-(thiophen-3-yl)cyclohexane-1-carboxamide] | 81.2 | > 50 | 95.6 | > 50 | 68.5 | > 50 | 44.9 | 25 | 9.9 | 0.19 | 6.1 | 0.038 |
| N#Cc1ccc(CS(=O)(=O)NC(=O)C2(c3ccsc3)CCCCC2)cc1Br [Compound 106, N-[(4-Cyano-3-bromophenyl)methanesulfonyl]-1-(thiophen-3-yl)cyclohexane-1-carboxamide] | 29.6 | 33 | 94.3 | > 50 | 11.9 | 7.26 | 17.6 | 7.84 | 7.8 | 0.065 | 5.4 | 0.014 |
| CC1CCC(C(=O)NS(=O)(=O)Cc2ccc(C#N)cc2)(c2ccc(F)cc2)CC1 (centres unmarked) [Compound 67, N-[(4-Cyanophenyl)methanesulfonyl]-1-(4-fluorophenyl)-4-methylcyclohexane-1-carboxamide] | 93 | > 50 | 98.3 | > 50 | 43 | 25.3 | 46.6 |  | 14.7 | 3.13 | 8 | 2.13 |
| N#Cc1ccc(CS(=O)(=O)NC(=O)C2(c3cccs3)CCCCC2)cc1 [Compound 75, N-[(4-Cyanophenyl)methanesulfonyl]-1-(thiophen-2-yl)cyclohexane-1-carboxamide] | 89.5 | > 50 | 95.5 | > 50 | 81.8 | > 50 | 57.2 | > 50 | 9.8 | 0.39 | 6.9 | 0.083 |
